We go through six molecules from US8940779B2, “Microbicidal composition” (Rohm and Haas Company, priority 2007, dated 2015).

Common to all, as to type: cell-based
For one assay, the system named is S. aureus ATCC#6538. The assay can be described thus: Microtiter plate MIC synergy test (Kull synergy index), bacterium. Particulars: for MIC: Staphylococcus aureus, ATCC6538; for Ca, first component alone (QA, MIC) / Cb, MBIT alone (QB, MIC): S. aureus; for Ca, first component alone (QA, MIC): component acting alone; for Cb, MBIT alone (QB, MIC): MBIT acting alone.

Another assay has as its system Ps. aeruginosa ATCC#9027. The assay is described as above. Particulars: for MIC: Pseudomonas aeruginosa, ATCC9027; for Ca, first component alone (QA, MIC) / Cb, MBIT alone (QB, MIC): Ps. aeruginosa; for Ca, first component alone (QA, MIC): component acting alone; for Cb, MBIT alone (QB, MIC): MBIT acting alone.
The subject of assay [1] is Candida albicans (C. albicans, ATCC 10231). The assay can be described thus: Microtiter plate MIC synergy test (Kull synergy index), yeast. The note with it: for MIC: Candida albicans, ATCC10231; for Ca, first component alone (QA, MIC) / Cb, MBIT alone (QB, MIC): C. albicans; for Ca, first component alone (QA, MIC): component acting alone; for Cb, MBIT alone (QB, MIC): MBIT acting alone. From the text: (§1) One measure of synergism is the industrially accepted method described by Kull, F. C.; Eisman, P. C.; Sylwestrowicz, H. D. and Mayer, R. L., in Applied Microbiology 9:538-541 (1961), using the ratio determined by the formula: Qa/QA+Qb/QB=Synergy Index (“SI”) wherein: • QA=concentration of compound A (first component) in ppm, acting alone, which produced an end point (MIC of Compound A). • Qa=concentration of compound A in ppm, in the mixture, which produced an end point. • QB=concentration of compound B (second component) in ppm, acting alone, which produced an end point (MIC of Compound B). • Qb=concentration of compound B in ppm, in the mixture, which produced an end point.
(§2) When the sum of Qa/QA and Qb/QB is greater than one, antagonism is indicated. […] The lower the SI, the greater the synergy shown by that particular mixture. The minimum inhibitory concentration (MIC) of a microbicide is the lowest concentration tested under a specific set of conditions that prevents the growth of added microorganisms.
(§3) Synergy tests were conducted using standard microtiter plate assays with media designed for optimal growth of the test microorganism. Minimal salt medium supplemented with 0.2% glucose and 0.1% yeast extract (M9GY medium) was used for testing bacteria; Potato Dextrose Broth (PDB medium) was used for testing yeast and mold. In this method, a wide range of combinations of microbicides was tested by conducting high resolution MIC assays in the presence of various concentrations of MBIT. High resolution MICs were determined by adding varying amounts of microbicide to one column of a microtitre plate and doing subsequent […] dilutions using an automated liquid handling system to obtain a series of endpoints ranging from 2 ppm to 10,000 ppm active ingredient.
(§4) The synergy of the combinations of the present invention was determined against a bacterium, Escherichia coli (E. coli—ATCC #8739), a yeast, Candida albicans (C. albicans—ATCC 10231), and a mold, Aspergillus niger (A. niger—ATCC 16404). The bacteria were used at a concentration of about 5×10^6 bacteria per mL and the yeast and mold at 5×10^5 fungi per mL. These microorganisms are representative of natural contaminants in many consumer and industrial applications. […] (yeast and mold) or 30° C. (bacteria).
(§5) In each test, Second Component (B) was MBIT and the First Component (A) was the other commercial microbicide.

Assay [2] deals with Aspergillus niger (A. niger, ATCC 16404). The assay can be described thus: Microtiter plate MIC synergy test (Kull synergy index), mold. Particulars: for MIC: Aspergillus niger; for Ca, first component alone (QA, MIC): A. niger, component acting alone.
From the text: as §1, §2, §3, §4, §5

Molecules are shown by their SMILES. “And” between values parts separate entries of the source, which are not always exact repeats. Equal entries are not always repeated. Where two headings read alike, the source gives them in different places. Some results are limits rather than exact numbers.

A word on the MIC: it is the lowest concentration that inhibits growth of the organism. As for `CC(C)(C)C(O)(CCc1ccc(Cl)cc1)Cn1cncn1` (stereo not shown) [tebuconazole], the MIC in the assay with S. aureus ATCC#6538 (S. aureus ATCC#6538, contact time 24 hrs, read-out: Ca - ppm AI of Tebuconazole (MIC end-point; alone QA or in the mixture Qa)) amounted to 300 mg/L; in the assay on S. aureus ATCC#6538 (S. aureus ATCC#6538, contact time 48 hrs, read-out: Ca - ppm AI of Tebuconazole (MIC end-point; alone QA or in the mixture Qa)) it was 425 mg/L; with Ps. aeruginosa ATCC#9027 (Ps. aeruginosa ATCC#9027, contact time 24 hrs, read-out: Ca - ppm AI of Tebuconazole (MIC end-point; alone QA or in the mixture Qa)), 875 mg/L; in the assay on Ps. aeruginosa ATCC#9027 (Ps. aeruginosa ATCC#9027, contact time 48 hrs, read-out: Ca - ppm AI of Tebuconazole (MIC end-point; alone QA or in the mixture Qa)), 1100 mg/L; in assay [1] (C. albicans ATCC # 10231, contact time 48 hrs, read-out: Ca - ppm AI of Tebuconazole (MIC end-point; alone QA or in the mixture Qa)), 110 mg/L; in assay [1] (C. albicans ATCC # 10231, contact time 72 hrs, read-out: Ca - ppm AI of Tebuconazole (MIC end-point; alone QA or in the mixture Qa)), 110 mg/L. Also, the MIC in assay [2] (ATCC16404, 72 h, A. niger ATCC # 16404, contact time 3 days, read-out: Ca - ppm AI of Tebuconazole (MIC end-point; alone QA or in the mixture Qa)) turned out to be 4.25 mg/L; in assay [2] (ATCC16404, 168 h, A. niger ATCC # 16404, contact time 7 days, read-out: Ca - ppm AI of Tebuconazole (MIC end-point; alone QA or in the mixture Qa)), 11 mg/L.
For `N#CC(Br)(Br)C(N)=O` [DBNPA, 2,2-Dibromo-3-nitrilopropionamide], the “Ca, first component alone (QA, MIC)” value in the assay with S. aureus ATCC#6538 (contact time 48 hrs) is given as 8.5 ppm AI; with Ps. aeruginosa ATCC#9027 (contact time 24 hrs), 4.25 ppm AI; with Ps. aeruginosa ATCC#9027 (contact time 48 hrs), 5.25 ppm AI; in assay [1] (contact time 48 hrs) it was 44 ppm AI; in assay [1] (contact time 72 hrs), greater than 44 ppm AI; in assay [2] (contact time 3 days), 42.5 ppm AI. In addition, the “Ca, first component alone (QA, MIC)” value in assay [2] (contact time 7 days) is recorded as 200 ppm AI.
As for `C=O` [HCHO, Formaldehyde], the “Ca, first component alone (QA, MIC)” value with S. aureus ATCC#6538 (contact time 24 hrs) was 30 ppm AI; in the assay on S. aureus ATCC#6538 (contact time 48 hrs) it was 30 ppm AI; in the assay on Ps. aeruginosa ATCC#9027 (contact time 24 hrs) it was 15 ppm AI; in the assay on Ps. aeruginosa ATCC#9027 (contact time 48 hrs) it was 26.25 ppm AI; in assay [1] (contact time 48 hrs), 425 ppm AI; in assay [1] (contact time 72 hrs) it was 525 ppm AI. In addition, the results for the “Ca, first component alone (QA, MIC)” value in assay [2] (contact time 3 days) and in assay [2] (contact time 7 days) were 200 ppm AI and 425 ppm AI, respectively.
`Cn1sc2ccccc2c1=O` [MBIT, N-methyl-1,2-benzisothiazolin-3-one]: the “Cb - ppm AI of MBIT (MIC end-point; alone QB or in the mixture Qb)” value (shortened to “Cb - ppm AI of MBIT”) in the assay with S. aureus ATCC#6538 (S. aureus ATCC#6538, contact time 24 hrs, Table 5) came out at 30 ppm; with S. aureus ATCC#6538 (S. aureus ATCC#6538, contact time 24 hrs, Table 6) it was 30 ppm; in the assay with S. aureus ATCC#6538 (S. aureus ATCC#6538, contact time 48 hrs, Table 5), 60 ppm; in the assay with S. aureus ATCC#6538 (S. aureus ATCC#6538, contact time 48 hrs, Table 6) it was 60 ppm; with Ps. aeruginosa ATCC#9027 (Ps. Aeruginosa ATCC#9027, contact time 24 hrs, Table 5), 100 ppm; in the assay on Ps. aeruginosa ATCC#9027 (Ps. Aeruginosa ATCC#9027, contact time 48 hrs, Table 5), 175 ppm. Further, the “Cb - ppm AI of MBIT” value is recorded as 100 ppm in the assay on Ps. aeruginosa ATCC#9027 (Ps. aeruginosa ATCC#9027, contact time 24 hrs, Table 6); 175 ppm in the assay on Ps. aeruginosa ATCC#9027 (Ps. aeruginosa ATCC#9027, contact time 48 hrs, Table 6); 30 ppm in assay [1] (C. albicans ATCC # 10231, contact time 48 hrs, Table 5); 30 ppm in assay [1] (C. albicans ATCC # 10231, contact time 48 hrs, Table 6); 30 ppm in assay [1] (C. albicans ATCC # 10231, contact time 72 hrs, Table 5); 30 ppm in assay [1] (C. albicans ATCC # 10231, contact time 72 hrs, Table 6). The “Cb - ppm AI of MBIT” value was 37.5 ppm in assay [2] (A. niger ATCC # 16404, contact time 3 days, Table 5); 37.5 ppm in assay [2] (A. niger ATCC # 16404, contact time 3 days, Table 6); 150 ppm in assay [2] (A. niger ATCC # 16404, contact time 7 days, Table 5); 150 ppm in assay [2] (A. niger ATCC # 16404, contact time 7 days, Table 6). Further, the “Cb, MBIT alone (QB, MIC)” value was 60 ppm AI and 30 ppm AI with S. aureus ATCC#6538 (contact time 24 hrs); 60 ppm AI in the assay with S. aureus ATCC#6538 (contact time 48 hrs); 100 ppm AI in the assay on Ps. aeruginosa ATCC#9027 (contact time 24 hrs); 175 ppm AI with Ps. aeruginosa ATCC#9027 (contact time 48 hrs); 30 ppm AI in assay [1] (contact time 48 hrs); 30 ppm AI in assay [1] (contact time 72 hrs).
For `CCCC1COC(Cn2cncn2)(c2ccc(Cl)cc2Cl)O1` (stereo not shown) [propiconazole], the MIC with S. aureus ATCC#6538 (S. aureus ATCC#6538, contact time 24 hrs, read-out: Ca - ppm AI of Propiconazole (MIC end-point; alone QA or in the mixture Qa)) came to 1100 mg/L; in the assay on S. aureus ATCC#6538 (S. aureus ATCC#6538, contact time 48 hrs, read-out: Ca - ppm AI of Propiconazole (MIC end-point; alone QA or in the mixture Qa)), 1100 mg/L; with Ps. aeruginosa ATCC#9027 (Ps. aeruginosa ATCC#9027, contact time 24 hrs, read-out: Ca - ppm AI of Propiconazole (MIC end-point; alone QA or in the mixture Qa)), 875 mg/L; in the assay on Ps. aeruginosa ATCC#9027 (Ps. aeruginosa ATCC#9027, contact time 48 hrs, read-out: Ca - ppm AI of Propiconazole (MIC end-point; alone QA or in the mixture Qa)), 875 mg/L; in assay [1] (C. albicans ATCC # 10231, contact time 48 hrs, read-out: Ca - ppm AI of Propiconazole (MIC end-point; alone QA or in the mixture Qa)), 525 mg/L; in assay [1] (C. albicans ATCC # 10231, contact time 72 hrs, read-out: Ca - ppm AI of Propiconazole (MIC end-point; alone QA or in the mixture Qa)), 525 mg/L. For the same molecule, the MIC in assay [2] (ATCC16404, 72 h, A. niger ATCC # 16404, contact time 3 days, read-out: Ca - ppm AI of Propiconazole (MIC end-point; alone QA or in the mixture Qa)) came out at 52.5 mg/L; in assay [2] (ATCC16404, 168 h, A. niger ATCC # 16404, contact time 7 days, read-out: Ca - ppm AI of Propiconazole (MIC end-point; alone QA or in the mixture Qa)), 87.5 mg/L.
On to `CCCCCCCCn1sccc1=O` [OIT, 2-N-octyl-4-isothiazolin-3-one], for which the “Ca, first component alone (QA, MIC)” value in the assay on S. aureus ATCC#6538 (contact time 24 hrs) is recorded as 30 ppm AI; with S. aureus ATCC#6538 (contact time 48 hrs), 200 ppm AI; in the assay on Ps. aeruginosa ATCC#9027 (contact time 24 hrs) it was 650 ppm AI; in the assay with Ps. aeruginosa ATCC#9027 (contact time 48 hrs), 650 ppm AI; in assay [1] (contact time 48 hrs), 3.25 ppm AI; in assay [1] (contact time 72 hrs), 3.25 ppm AI. Also, the “Ca, first component alone (QA, MIC)” value in assay [2] (contact time 3 days) was 0.65 ppm AI; in assay [2] (contact time 7 days) it was 8.75 ppm AI.
